# Reference: paper PMC8895377, “In Vivo Targeting Replication Protein A for Cancer Therapy” (Frontiers in Oncology, 2022)
# Read-outs that look alike come from different tables or passages of the source.
# What was measured:
# [1] = biological target: T1, RPA–DNA interaction (purified full-length RPA) (Homo sapiens, UniProt P27694); experiment: EMSA of RPA–DNA interaction inhibition; type: binding; conditions: 6.25, 12.5, 25, 50 µM RPAi
# T1 construct: Purified full-length RPA (120 ng) was incubated with the indicated RPAi
# T1 sequence (P27694 whole entry): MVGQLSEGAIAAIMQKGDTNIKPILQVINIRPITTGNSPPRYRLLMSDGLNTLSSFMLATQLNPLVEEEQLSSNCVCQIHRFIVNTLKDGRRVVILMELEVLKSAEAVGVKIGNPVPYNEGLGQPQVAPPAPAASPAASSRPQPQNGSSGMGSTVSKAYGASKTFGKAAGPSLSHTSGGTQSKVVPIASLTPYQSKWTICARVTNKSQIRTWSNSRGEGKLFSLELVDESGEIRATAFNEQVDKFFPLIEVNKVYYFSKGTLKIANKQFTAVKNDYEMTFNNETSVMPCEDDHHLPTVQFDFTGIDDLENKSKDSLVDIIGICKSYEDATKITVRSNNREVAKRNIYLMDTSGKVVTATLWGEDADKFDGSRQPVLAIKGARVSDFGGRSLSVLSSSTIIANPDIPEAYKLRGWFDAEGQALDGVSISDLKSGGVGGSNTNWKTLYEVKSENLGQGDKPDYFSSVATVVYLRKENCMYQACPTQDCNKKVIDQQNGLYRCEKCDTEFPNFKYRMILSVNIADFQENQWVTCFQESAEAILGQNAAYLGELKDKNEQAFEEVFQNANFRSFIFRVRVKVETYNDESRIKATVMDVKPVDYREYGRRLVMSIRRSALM
# T1 sequence (P15927 whole entry partner): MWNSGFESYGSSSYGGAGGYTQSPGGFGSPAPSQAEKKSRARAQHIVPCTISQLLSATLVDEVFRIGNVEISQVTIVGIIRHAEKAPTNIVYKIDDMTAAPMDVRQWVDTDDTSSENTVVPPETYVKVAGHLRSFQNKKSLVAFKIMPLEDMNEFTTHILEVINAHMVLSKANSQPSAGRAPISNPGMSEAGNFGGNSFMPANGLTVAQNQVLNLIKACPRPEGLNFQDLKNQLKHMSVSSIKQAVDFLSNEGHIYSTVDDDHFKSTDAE
# T1 sequence (P35244 whole entry partner): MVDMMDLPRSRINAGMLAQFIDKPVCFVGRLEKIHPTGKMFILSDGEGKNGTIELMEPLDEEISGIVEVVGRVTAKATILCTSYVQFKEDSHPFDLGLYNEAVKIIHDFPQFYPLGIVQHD
# Protocol: (§1) EMSAs were performed as previously described ([9]). Briefly, reactions were conducted in 20 mM HEPES (pH 7.8), 1 mM DTT, 0.001% NP-40, and 50 mM NaCl. RPAis were suspended in 100% dimethlysulfoxide (DMSO), and DMSO concentration in the final reaction mixture was constant at less than 5%. Purified full-length RPA (120 ng) was incubated with the indicated RPAi or vehicle in reaction buffer for 30 min before the addition of the [^32]P-labeled 34-base ssDNA probe. Reactions were incubated for 5 min at room temperature, and products were separated via 6% native polyacrylamide gel electrophoresis. The bound and unbound fractions were quantified by phosphor-imager analysis using ImageQuant software (Molecular Dynamics, CA), and data were fit by non-linear regression using GraphPad Prism.
# (§2) Figure 2 Replication protein A inhibitor (RPAi) inhibitory activity. (A) Chemical structure of RPAi’s 329 and 2004. (B) EMSA analysis of RPA–DNA interaction inhibition by 329 and 2004. Lanes 3–6 in each panel contain 6.25, 12.5, 25, and 50 µM of the indicated RPAi, respectively. The * indicates the position of the Escherichia coli SSB–single-stranded DNA (ssDNA) complex that serves as an internal specificity control. (C) Cell viability of H460 NSCLC cells in response to 329 and 2004.
# [2] = biological target: Escherichia coli single strand binding protein (SSB) (Escherichia coli, UniProt P0AGE0); experiment: EMSA internal specificity control, SSB–ssDNA complex; conditions: internal specificity control in EMSA
# Sequence of Escherichia coli single strand binding protein (SSB) (P0AGE0 2-178): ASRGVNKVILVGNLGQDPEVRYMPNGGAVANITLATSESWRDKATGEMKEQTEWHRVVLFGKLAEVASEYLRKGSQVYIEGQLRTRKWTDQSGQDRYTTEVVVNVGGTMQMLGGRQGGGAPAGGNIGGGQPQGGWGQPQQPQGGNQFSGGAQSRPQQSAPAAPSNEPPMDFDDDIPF
# Protocol: as §1, §2
# H460 cells = experiment: DNA fiber analysis of replication fork dynamics; type: cell-based, human
# Protocol: Analysis of DNA replication intermediates was performed as previously described with minor modifications ([11], [12]). H460 cells were seeded in 6-well plates at a density of 2 × 10^5 cells. […] After harvesting, the cells were resuspended in PBS at a concentration of 1,000,000 cells/ml, and 2 µl of the cell suspension was mixed with 8 µl of lysis buffer (200 mM Tris-HCl pH 7.5, 50 mM EDTA, 0.5% SDS) on a Superfrost Plus microscope slide (Fisher Scientific). After 6 min of incubation, the slides were tilted at a 45-degree angle to allow cell lysates to slowly run down the slide. After air-drying, the slides were fixed in methanol:acetic acid (3:1) and stored at 4°C. DNA fibers were denatured with 2.5N HCl for 1 h, washed with PBS, and blocked with 5% BSA in PBS-T (PBS + 0.1% Tween-20) for 1 h. […] Excess antibodies were removed by washing with PBS-T 3 times. After air-drying, the slides were mounted onto a coverslip with mounting medium. Fiber tracts were imaged with a Nikon epifluorescence microscope using a 40× oil immersion objective, and 100 fibers for each group were analyzed in ImageJ where the ratios of CldU : IdU were compared using pixel length. Data were analyzed by ANOVA with Bonferroni test for multiple comparisons.
# (A) Schematic depiction of experimental design. DNA was pulse-labeled with IdU for 20 min. After IdU removal, replication forks were stalled by the addition of HU or left to replicate with vehicle treatment. HU was removed, and replication was labeled with CldU. Following CldU, cells were treated with the DDRi or vehicle. […] Data presented are combined from three individual experiments (100 fibers analyzed per experiment; 300 fibers total). Red bar indicates the median value of CldU/IdU.
# [3] = Intrinsic clearance and half-life in rat microsomes; type: in vitro ADME; conditions: for microsomal CLint: rat, microsomes
# Description: Toward the goal to identify efficacious and safe RPAi 329 treatment regimens, we conducted single-agent screening in two lung cancer cell line-derived xenograft models. […] Having optimized cellular uptake and solubility via the addition of the propyl morpholino in 329 and 2004, we sought to determine how these modifications impact in vivo anticancer activity using two NSCLC models, A549 adenocarcinoma and H460 large cell carcinoma. […] Analyses of intrinsic clearance and half-life were conducted in mouse and rat microsomes ( Table 1 ). […] These values are less than the rate of 48, which is considered rapid clearance. In rat microsomes, rates of ~64 were obtained for 329 and are less than the rapid rate of 71.
# [4] = Vehicle/excipient solubility screen; type: physicochemical
# Protocol: With favorable potency, cellular activity, plasma stability, and a clear deficit in PK, we initiated a series of studies to assess and optimize a formulation of 329 for in vivo bioavailability. Here, 329 solubility was assessed in a series of additives, excipients, and co-solvents to identify initial favorable vehicles ( Table 2 ). […] A series of different formulations were assessed. The final formulation consisted of polysorbate 80, N-methyl-2-pyrrolidone (NMP), propylene glycol, and PEG 400 (+1.1 mol. eq. HCl added as 12 M HCl), and 329 was soluble up to 20 mg/ml, and 10-fold dilution in PBS was well dispersed with minimal precipitation.
# [5] = tested on: A549 adenocarcinoma and H460 large cell carcinoma; parameters: method as in doi:10.1101/2020.11.30.404640; conditions: both models, differing dosing regimens, DMSO/Tween; cited from earlier work
smiles,measurement,setting,value
CCOc1ccc2cc(C3CC(c4ccc(I)cc4)=NN3C(=O)CCCC(=O)NCCCN3CCOCC3)c(Cl)nc2c1 (centres unmarked) [compound 329],"RPA inhibitory activity (RPA–DNA interaction, EMSA)",[1],potent RPA inhibitory activity
same,interaction of E. coli SSB with ssDNA,[2],not impacted
same,CldU/IdU signal after HU,"H460 cells; H460, HU 2.5 mM then 329 50 µM or VE-822 2 µM",significant decrease in CldU/IdU signal
same,"CldU/IdU, inhibitor alone","H460 cells; H460, without HU, 329 50 µM, VE-822 2 µM, 2 h",minimal effects
same,half-life,[3]; Rat microsomes,21.7 min
same,microsomal CLint,"[3]; Rat microsomes, read-out: CLint",63.8 µL/min/mg
same,microsomal CLint,"[3]; rat microsomes, read-out: rate of clearance",~64 µL/min/mg
same,solubility,"[4]; 30% SBECD in water, aqueous with cosolvent or surfactant or cyclodextrin, read-out: Solubility",< 1000 µg/mL
same,solubility,"[4]; Cremophor EL, aqueous with cosolvent or surfactant or cyclodextrin, read-out: Solubility",< 1000 µg/mL
same,solubility,"[4]; Labrasol, aqueous with cosolvent or surfactant or cyclodextrin, read-out: Solubility",1100 µg/mL
same,solubility,"[4]; NMP (N-methyl-2-pyrrolidone), organic solvent or mixture, read-out: Solubility",70400 µg/mL
same,solubility,"[4]; aqueous buffer, 50 mM sodium acetate pH 4, read-out: Solubility",< 1000 µg/mL
same,solubility,"[4]; ethanol, organic solvent or mixture, read-out: Solubility",< 1000 µg/mL
same,solubility,"[4]; oleic acid, oil or lipid, read-out: Solubility",2400 µg/mL
same,solubility,"[4]; organic solvent or mixture, polysorbate 80, NMP, propylene glycol, PEG 400 (+1.1 mol. eq. HCl), read-out: solubility in final formulation",≤ 20000 µg/mL
same,solubility,"[4]; polyethylene glycol 400, organic solvent or mixture, read-out: Solubility",1200 µg/mL
same,solubility,"[4]; polysorbate 80, aqueous with cosolvent or surfactant or cyclodextrin, Polysorbate 8O, read-out: Solubility",< 1000 µg/mL
same,solubility,"[4]; propylene glycol, organic solvent or mixture, read-out: Solubility",1300 µg/mL
same,solubility,"[4]; water, read-out: Solubility",< 1000 µg/mL
same,single-agent anticancer activity in vivo,[5],only modest single-agent anticancer activity
